Calls of active or inactive are those of the source. The calls are words filed in the database; no cut-off is given here.

Experimental findings from ChEMBL document CHEMBL1121563, “8-Hydroxyanthracyclinones from epsilon-rhodomycinone” (1980) are described below.

The test system of assay [1] is Escherichia coli. Description: Compound is evaluated for lambda-phage induction activity in Escherichia coli (dose at 25 ug/mL). In kind it is functional.
For assay [2], the system named is Escherichia coli. Description: Compound is evaluated for lambda-phage induction activity in Escherichia coli (dose at 50 ug/mL); Toxic to culture. Type of assay: functional.
In assay [3] the test system is Escherichia coli. Description: Compound is evaluated for lambda-phage induction activity in Escherichia coli (dose at 12.5 ug/mL). In kind it is functional.
Assay [4] relates to Escherichia coli. Description: Compound is evaluated for lambda-phage induction activity in Escherichia coli (dose at 50 ug/mL). In kind it is functional.
Assay [5] relates to Escherichia coli. Description: Compound is evaluated for lambda-phage induction activity in Escherichia coli (dose at 6.2 ug/mL). In kind it is functional.
Assay [6] relates to Escherichia coli. Description: Compound is evaluated for lambda-phage induction activity in Escherichia coli (dose at 3.1 ug/mL). In kind it is functional.
A further assay concerns Bacillus subtilis. Description: Compound was tested for its lambda-phage induction activity against Bacillus subtilis in a disk plate assay at concentration of dose of 0.8 ug/mL; Active. In kind it is functional, organism-based.
The subject of assay [7] is Escherichia coli. Description: Compound is evaluated for lambda-phage induction activity in Escherichia coli (dose at 1.6 ug/mL). Type of assay: functional.
Assay [8] deals with Escherichia coli. Description: Compound is evaluated for lambda-phage induction activity in Escherichia coli (dose at 0.8 ug/mL). In kind it is functional.
Assay [9] concerns Escherichia coli. Description: Compound is evaluated for lambda-phage induction activity in Escherichia coli (dose at 6.2 ug/mL); Toxic to culture. Type of assay: functional.

Regarding `CC[C@@]1(O)C[C@H](O)c2c(O)c3c(c(O)c2[C@H]1C(=O)OC)C(=O)c1cccc(O)c1C3=O`, the Activity with Escherichia coli [1] came to 1.8; with Escherichia coli [2], 2.9; in the assay on Escherichia coli [3], 1.5.

`CC[C@]12O[C@H]1Cc1c(O)c3c(c(O)c1[C@H]2C(=O)OC)C(=O)c1cccc(O)c1C3=O`: the Activity in the assay on Escherichia coli [4] was determined as 2.9; with Escherichia coli [5], 1.3; in the assay on Escherichia coli [1] it was 1.9; in the assay on Escherichia coli [3] it was 1.5; with Escherichia coli [6] it was 1.2.

For the molecule `CCC1=CCc2c(O)c3c(c(O)c2[C@H]1C(=O)OC)C(=O)c1cccc(O)c1C3=O`, the Activity in the assay on Escherichia coli [4] is listed as 13.4; with Escherichia coli [5], 2.8; in the assay on Escherichia coli [1] it was 9.3; in the assay on Escherichia coli [3], 6.

On to `CC[C@H]1CCc2c(O)c3c(c(O)c2[C@H]1C(=O)OC)C(=O)c1cccc(O)c1C3=O`, for which the Activity in the assay with Escherichia coli [4] was 2.4; with Escherichia coli [5] it was 1.3; in the assay on Escherichia coli [1], 1.8; in the assay with Escherichia coli [3], 1.2; in the assay on Escherichia coli [6], 1.

In the case of `COc1cccc2c1C(=O)c1c(O)c3c(c(O)c1C2=O)C[C@@](O)(C(C)=O)C[C@@H]3O[C@H]1C[C@H](N)[C@H](O)[C@H](C)O1` [DAUNORUBICIN], in the assay with Bacillus subtilis, the outcome was Active. Moreover, the Activity stood at 5.3 in the assay on Escherichia coli [7], 3.1 in the assay on Escherichia coli [8], 11.9 with Escherichia coli [6] and 11.1 in the assay with Escherichia coli [9].

In the case of `CC[C@@]12O[C@@H]1Cc1c(O)c3c(c(O)c1[C@H]2C(=O)OC)C(=O)c1cccc(O)c1C3=O`, the Activity stood at 3 in the assay on Escherichia coli [4]; 1.4 in the assay with Escherichia coli [5]; 2 with Escherichia coli [1]; 1.1 in the assay with Escherichia coli [3]; 1.2 in the assay with Escherichia coli [6].

For `CC(=O)[C@]1(O)Cc2c(O)c3c(c(O)c2[C@@H](O[C@H]2C[C@H](N)[C@H](O)[C@H](C)O2)C1)C(=O)c1c(O)cccc1C3=O` [CARUBICIN], the result in the assay with Bacillus subtilis was Active. The Activity in the assay with Escherichia coli [5] came out at 7; with Escherichia coli [7], 3; with Escherichia coli [8], 2.2; in the assay with Escherichia coli [6], 6.2.
